In patent EP0338306A2, “Halogen-substituted phenoxybenzyl compounds” (BAYER AG, priority 1988, dated 1989):

Assays:
[1] = tested on: Unkräuter, wie z. B. Datura, Galium, Polygonum, Portulak, Sinapis und Solanum; test: Post-emergence test (herbicidal action on weeds); format: in vivo; conditions: post-emergence spray on test plants 5 - 15 cm high, 2000 l Wasser/ha, rated after three weeks as % Schädigung vs untreated control; result stated in comparison with Vergleichssubstanz (A)
From the text: (§1) Lösungsmittel: 5 Gewichtsteile Aceton Emulgator: 1 Gewichtsteil Alkylarylpolyglykolether
(§2) Zur Herstellung einer zweckmäßigen Wirkstoffzubereitung vermischt man 1 Gewichtsteil Wirkstoff mit der angegebenen Menge Lösungsmittel, gibt die angegebene Menge Emulgator zu und verdünnt das Konzentrat mit Wasser auf die gewünschte Konzentration. Mit der Wirkstoffzubereitung spritzt man Testpflanzen, welche eine Höhe von 5 - 15 cm haben so, daß die jeweils gewünschten Wirkstoffmengen pro Flächeneinheit ausgebracht werden. Die Konzentration der Spritzbrühe wird so gewählt, daß in 2000 l Wasser/ha die jeweils gewünschten Wirkstoffmengen ausgebracht werden. Nach drei Wochen wird der Schädigungsgrad der Pflanzen bonitiert in % Schädigung im Vergleich zur Entwicklung der unbehandelten Kontrolle.

Weizen = test: Post-emergence test (crop selectivity); format: in vivo; conditions: post-emergence spray, 2000 l Wasser/ha, rated after three weeks
From the text: as §1, §2

SMILES	Wirkung gegen Unkräuter [1]	Selektivität in Weizen (Weizen)
CCOC(=O)C(C)(O)Cc1cc(Oc2c(Cl)cc(C(F)(F)F)cc2Cl)ccc1Cl (stereo not shown) [Beispiel 6, 1-Hydroxy-1-methyl-2-(2-chlor-5-(2,6-dichlor-4-trifluormethyl-phenoxy)-phenyl)-propionsäure-ethylester]	erheblich stärkere Wirkung	guter Selektivität
FC(F)(F)c1ccc(Oc2ccc(Cl)c(CBr)c2)c(Cl)c1 [Beispiel 1, 2-Chlor-5-(2-Chlor-4-trifluormethyl-phenoxy)-benzylbromid]	erheblich stärkere Wirkung	guter Selektivität
